The nature of series [1]: Cyanocobalamin concentration and appearance of polymer/DMSO compositions and stock solutions, with or without pamoic acid. The series is classed as physicochemical. Conditions: pamoic acid present relative to not present. On the procedure: Compositions comprising 25% polymer and cyanocobalamin either with or without pamoic acid (i.e., to form a cyanocobalamin pamoate salt) in 100% DMSO were prepared starting from 12 mg/g stock solutions, as shown in Tables 2 and 3.

The conditions of series [2]: within 48 hours of injection; current standard-of-care injectable compositions; cited from earlier work.

Consider cyanocobalamin pamoate, for which the “Dissolution of cyanocobalamin in compositions comprising poly(lactide-co-glycolide) and DMSO” value in series [1] is given as “dissolves significantly more effectively”.
In the case of vitamin B12, the “vitamin B12 excreted in urine” value in series [2] is at most 98%.
